Test system: 889142-216-R-J1-PDC complex spheroid viability
Test: Anticancer human tumor 889142-216-R-J1-PDC patient-derived bladder carcinoma cell line growth inhibition [POLQ]
Conditions: for IC50: curve of first compound; for viability, T/C: stronger effect = lower value
Protocol: Multicellular complex tumor spheroid response to Polymerase (POL) inhibitors (novobiocin, ART-558, RP6685) in combination with a variety of drugs and investigational agents in selected tumor cell lines
The POL inhibitors (novobiocin, ART-558, and RP6685) were evaluated both individually and in combination with standard of care and investigational anticancer small molecules within a complex spheroid model of solid tumors. . Complex spheroids include a stromal component modeled by human endothelial cells (HUVEC) and fibroblasts modeled by human mesenchymal stem cells (MSCs). The concentration ranges selected for each drug and investigational agent were based upon clinically achievable concentrations if the clinical Cmax of the agent was known.
Compounds. The drugs and investigational agents: novobiocin (NSC847541), ART-558 (NSC835418), RP-6685 (NSC848927), peposertib (NSC802822), ceralasertib (NSC780249), elimusertib (NSC800525), camonsertib (NSC841442), AZD-1390 (NSC803789), olaparib (NSC753686), talazoparib (NSC767125), rucaparib (NSC756644), sotorasib (NSC818433), MRTX-1133 (NSC836407), SN-38 (NSC673596), topotecan (NSC609699), epotoside (NSC141540), doxorubicin (NSC123127), gemcitabine (NSC613327), 5-fluorouracil (NSC19893), paclitaxel (NSC125973), vemurafenib (NSC761431), MSA-2 (NSC828583), SN-011 (NSC837082), adavosertib (NSC754352), prexasertib (NSC758257), carboplatin (NSC241240) and oxaliplatin (NSC266046), were obtained from the National Cancer Institute (NCI) Developmental Therapeutics Program Chemical Repository (21). The FDA-approved anticancer drug set is available from the Developmental Therapeutics Program at https://dtp.cancer.gov/organization/dscb/obtaining/. […] The stock solutions were prepared in dimethyl sulfoxide (DMSO, Sigma-Aldrich, St. Louis, MO, cat. D2650), except for the platinum compounds which were prepared in saline (Quality Biological, Gaithersburg, MD, cat. 114-055-101), at 800-fold the tested concentration and stored at -70 degrees C prior to their use. All drugs and investigational agents were tested over a range starting from a high concentration at or near the clinical Cmax and decreasing in half-log increments. If the clinical Cmax for an agent had not been determined, the highest concentration tested was 10 microM, except for SN-38, which was tested at a high concentration of 1 microM.
Cell Culture. All cells were maintained in an incubator at 37 degrees C and 5% CO2 with 95% humidity. The PDC lines were cultured according to standard operating procedures established by the NCI PDMR (https://pdmr.cancer.gov). Table 3 of the manuscript, lists the cell lines along with the number of the three cell types plated to form the mct-spheroids and media for tumor cell growth. After thawing, all PDC lines, except 997537-175-T-J1-PDC and 415267-285-R-J2-PDC, were cultured in Matrigel-coated flasks prepared with a working solution of 1X Ham's F-12 nutrient mix, without supplementation (Thermo Fisher Scientific, cat. 11765054), 100 U/mL penicillin-streptomycin (Thermo Fisher Scientific, cat. 15140122), and 2.5% Matrigel (Corning Inc., Corning, NY, cat. 354248) for the first three passages. The two PDC lines 997537-175-T-J1-PDC and 415267-285-R-J2-PDC were cultured on uncoated flasks. The 857933-349-R-J2-PDC line was cultured in 6C/Colon 1B media containing advanced DMEM/F-12 (Thermo Fisher Scientific, cat. 12634028), 10 mM HEPES (Thermo Fisher Scientific, cat. 15630080), 1X GlutaMAX supplement (Thermo Fisher Scientific, cat. 35050061), 0.1 mg/mL primocin (InvivoGen, San Diego, CA, cat. ant-pm-2), 10% defined fetal bovine serum, heat inactivated (HyClone Laboratories Inc., Logan, UT, cat. SH30070.03HI), 50% L-WRN conditioned media (ATCC, cat. CRL-3276), 1.25 mM N-Acetyl-L-cysteine (Sigma-Aldrich, cat. A9165), 10 mM nicotinamide (Sigma-Aldrich, cat. N0636), 1X B-27 supplement (Thermo Fisher Scientific, cat. 17504044), 1X N-2 supplement (Thermo Fisher Scientific, cat. […]

[1] = second compound 0.0316 µM, first compound 0.0316 µM
[2] = second compound 0.0316 µM, first compound 0.1 µM
[3] = second compound 0.0316 µM, first compound 0.316 µM
[4] = second compound 0.0316 µM, first compound 1 µM
[5] = second compound 0.1 µM, first compound 0.0316 µM
[6] = second compound 0.1 µM, first compound 0.1 µM
[7] = second compound 0.1 µM, first compound 0.316 µM
[8] = second compound 0.1 µM, first compound 1 µM
[9] = second compound 0.316 µM, first compound 0.0316 µM
[10] = second compound 0.316 µM, first compound 0.1 µM
[11] = second compound 0.316 µM, first compound 0.316 µM
[12] = second compound 0.316 µM, first compound 1 µM
[13] = second compound 1 µM, first compound 0.0316 µM
[14] = second compound 1 µM, first compound 0.1 µM
[15] = second compound 1 µM, first compound 0.316 µM
[16] = second compound 1 µM, first compound 1 µM
[17] = second compound 3.16 µM, first compound 0.0316 µM
[18] = second compound 3.16 µM, first compound 0.1 µM
[19] = second compound 3.16 µM, first compound 0.316 µM
[20] = second compound 3.16 µM, first compound 1 µM
[21] = second compound 10 µM, first compound 0.0316 µM
[22] = second compound 10 µM, first compound 0.1 µM
[23] = second compound 10 µM, first compound 0.316 µM
[24] = second compound 10 µM, first compound 1 µM
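Note: spheroids exposed to compounds for seven days.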
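Throughout, for viability, T/C: 100% = DMSO vehicle control viability.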

SMILES: COc1cccc(OCCCN)c1-c1cc(Nc2cnc(C#N)cn2)n[nH]1 + COC1C(OC(N)=O)C(O)C(Oc2ccc3c(O)c(NC(=O)c4ccc(O)c(CC=C(C)C)c4)c(=O)oc3c2C)OC1(C)C
- IC50 (second compound 0.0316 µM): 20.4 nM
- IC50 (second compound 0.1 µM): 19.8 nM
- IC50 (second compound 0.316 µM): 29.8 nM
- IC50 (second compound 1 µM): 17.5 nM
- IC50 (second compound 3.16 µM): 26.4 nM
- IC50 (second compound 10 µM): 20 nM
- viability, T/C (second compound 0.0316 µM, first compound 0.00316 µM): 90.8%
- viability, T/C (second compound 0.0316 µM, first compound 0.01 µM): 55.7%
- viability, T/C [1]: 51.2%
- viability, T/C [2]: 33.5%
- viability, T/C [3]: 34.4%
- viability, T/C [4]: 36.2%
- viability, T/C (second compound 0.1 µM, first compound 0.00316 µM): 90%
- viability, T/C (second compound 0.1 µM, first compound 0.01 µM): 63.5%
- viability, T/C [5]: 41.1%
- viability, T/C [6]: 31.6%
- viability, T/C [7]: 31.5%
- viability, T/C [8]: 30.9%
- viability, T/C (second compound 0.316 µM, first compound 0.00316 µM): 73.2%
- viability, T/C (second compound 0.316 µM, first compound 0.01 µM): 66.6%
- viability, T/C [9]: 47.8%
- viability, T/C [10]: 38.8%
- viability, T/C [11]: 33.8%
- viability, T/C [12]: 31.7%
- viability, T/C (second compound 1 µM, first compound 0.00316 µM): 87%
- viability, T/C (second compound 1 µM, first compound 0.01 µM): 57.5%
- viability, T/C [13]: 40.9%
- viability, T/C [14]: 36.7%
- viability, T/C [15]: 35%
- viability, T/C [16]: 30%
- viability, T/C (second compound 3.16 µM, first compound 0.00316 µM): 78.3%
- viability, T/C (second compound 3.16 µM, first compound 0.01 µM): 61.5%
- viability, T/C [17]: 48%
- viability, T/C [18]: 38.2%
- viability, T/C [19]: 31.4%
- viability, T/C [20]: 28.6%
- viability, T/C (second compound 10 µM, first compound 0.00316 µM): 81.7%
- viability, T/C (second compound 10 µM, first compound 0.01 µM): 58.5%
- viability, T/C [21]: 45.6%
- viability, T/C [22]: 33.8%
- viability, T/C [23]: 34.4%
- viability, T/C [24]: 30.7%

SMILES: O=c1[nH]cc(F)c(=O)[nH]1 + COC1C(OC(N)=O)C(O)C(Oc2ccc3c(O)c(NC(=O)c4ccc(O)c(CC=C(C)C)c4)c(=O)oc3c2C)OC1(C)C
- IC50 (second compound 0.0316 µM): > 10000 nM
- IC50 (second compound 0.1 µM): > 10000 nM
- IC50 (second compound 0.316 µM): > 10000 nM
- IC50 (second compound 1 µM): > 10000 nM
- IC50 (second compound 3.16 µM): > 10000 nM
- IC50 (second compound 10 µM): > 10000 nM
- viability, T/C [1]: 98.8%
- viability, T/C [2]: 99.2%
- viability, T/C [3]: 94.5%
- viability, T/C [4]: 75%
- viability, T/C (second compound 0.0316 µM, first compound 3.16 µM): 74%
- viability, T/C (second compound 0.0316 µM, first compound 10 µM): 70.6%
- viability, T/C [5]: 121%
- viability, T/C [6]: 107%
- viability, T/C [7]: 75.3%
- viability, T/C [8]: 67.2%
- viability, T/C (second compound 0.1 µM, first compound 3.16 µM): 75.2%
- viability, T/C (second compound 0.1 µM, first compound 10 µM): 77.5%
- viability, T/C [9]: 112%
- viability, T/C [10]: 113%
- viability, T/C [11]: 95.1%
- viability, T/C [12]: 83.6%
- viability, T/C (second compound 0.316 µM, first compound 3.16 µM): 85.8%
- viability, T/C (second compound 0.316 µM, first compound 10 µM): 72.6%
- viability, T/C [13]: 106%
- viability, T/C [14]: 123%
- viability, T/C [15]: 92.5%
- viability, T/C [16]: 78.8%
- viability, T/C (second compound 1 µM, first compound 3.16 µM): 77.6%
- viability, T/C (second compound 1 µM, first compound 10 µM): 67.8%
- viability, T/C [17]: 112%
- viability, T/C [18]: 90.2%
- viability, T/C [19]: 73.3%
- viability, T/C [20]: 79.3%
- viability, T/C (second compound 3.16 µM, first compound 3.16 µM): 78.9%
- viability, T/C (second compound 3.16 µM, first compound 10 µM): 78%
- viability, T/C [21]: 90.5%
- viability, T/C [22]: 103%
- viability, T/C [23]: 87.8%
- viability, T/C [24]: 89.7%
- viability, T/C (second compound 10 µM, first compound 3.16 µM): 70.5%
- viability, T/C (second compound 10 µM, first compound 10 µM): 69.8%

From PubChem BioAssay AID1963831 (Molecular Pharmacology Branch, DTP, NCI, 2024)
